Columns and labels:
CDK12/CycK complex = CDK12/CycK complex (Homo sapiens, UniProt Q9NYV4); assay: Measurement of CDK12 inhibitory activity by binding assay (BODIPY-FL labeled AT-7519 high concentration conditions, 1320 nM); conditions: inhibitory rate against CDK12 at 1 μM test compound, 1320 nM BODIPY-FL-labeled AT-7519, 8 nM CDK12/CycK
Protocol: (4) Measurement of CDK12 Inhibitory Activity by Binding Assay (BODIPY-FL Labeled AT-7519 High Concentration Conditions)
His-tagged CDK12/CycK complex was blended with a binding assay buffer supplemented with BODIPY-FL labeled AT-7519, terbium-labeled streptavidin and biotin-labeled anti-histidine antibody. This solution was added to an assay plate containing a test compound dispensed therein, and the mixture was left standing for 120 min at room temperature. The final concentration of CDK12/CycK complex, BODIPY-FL-labeled AT-7519, terbium-labeled streptavidin and biotin-labeled anti-histidine antibody was set to 8 nM, 1320 nM, 0.2 nM, and 0.4 nM, respectively. The fluorescence intensity derived from terbium and BODIPY-FL was measured using Envision. The signal value of each well was determined using the TR-FRET ratio calculated by the following formula. TR-FRET ratio=(fluorescence value of BODIPY-FL)÷(fluorescence value of terbium)
The inhibitory rate (%) of the test compound against CDK12 was calculated by the following formula. Inhibitory rate (%)=(1−(TR-FRET ratio of test compound−blank)÷(control−blank))×100
The TR-FRET ratio of the CDK12 enzyme reaction mixture under compound non-addition conditions is indicated as control, and the TR-FRET ratio under 30 μM AT-7519 addition conditions is indicated as blank.
The inhibitory rate of the test compound against CDK12 at 1 μM is shown below.

A2780 cells = assay: In vitro proliferation suppression test (CellTiter-Glo); assay type: cell-based, human; conditions: Homo sapiens, 72 h, A2780 cell proliferation inhibitory rate at 1 μM test compound, three days
Protocol: Experimental Example 4: In Vitro Proliferation Suppression Test
The proliferation suppressive activity of compound in A2780 cells was evaluated by the following method.
A2780 cells were seeded in a 384-well white plate at a cell density of 1,000 cells/40 μL/well or a 96-well white plate at a cell density of 1,000 cells/90 μL/well using an assay medium (RPMI1640 medium containing 10% fetal bovine serum (FUJIFILM Wako Pure Chemical Corporation)) and incubated at 37° C. in 5% CO2.
The next day, a test compound dissolved in dimethyl sulfoxide (DMSO) was diluted with an assay medium, the obtained compound solution was added by 40 μL/well or 10 μL/well to each well of the plate containing A2780 cells and the mixture was incubated (test compound addition group). In addition, a similar reaction was performed without adding the test compound (test compound non-addition group).
Three days later, 80 μL or 100 μL of CellTiter-Glo reagent (Promega) was added, and the mixture was stirred for 10 min. Thereafter, the luminescence of each well was measured by ARVO-MX multilabel counter (Perkin Elmer Inc.).
The proliferation inhibitory rate (%) of each test compound against A2780 cells was calculated by the following calculation formula. Proliferation inhibitory rate (%)=(1−luminescence of test compound addition group÷luminescence of test compound non-addition group)×100
The A2780 cell proliferation inhibitory rate (%) of 1 μM test compound is shown below.

Sequence of CDK12/CycK complex (Q9NYV4 whole entry, species assumed): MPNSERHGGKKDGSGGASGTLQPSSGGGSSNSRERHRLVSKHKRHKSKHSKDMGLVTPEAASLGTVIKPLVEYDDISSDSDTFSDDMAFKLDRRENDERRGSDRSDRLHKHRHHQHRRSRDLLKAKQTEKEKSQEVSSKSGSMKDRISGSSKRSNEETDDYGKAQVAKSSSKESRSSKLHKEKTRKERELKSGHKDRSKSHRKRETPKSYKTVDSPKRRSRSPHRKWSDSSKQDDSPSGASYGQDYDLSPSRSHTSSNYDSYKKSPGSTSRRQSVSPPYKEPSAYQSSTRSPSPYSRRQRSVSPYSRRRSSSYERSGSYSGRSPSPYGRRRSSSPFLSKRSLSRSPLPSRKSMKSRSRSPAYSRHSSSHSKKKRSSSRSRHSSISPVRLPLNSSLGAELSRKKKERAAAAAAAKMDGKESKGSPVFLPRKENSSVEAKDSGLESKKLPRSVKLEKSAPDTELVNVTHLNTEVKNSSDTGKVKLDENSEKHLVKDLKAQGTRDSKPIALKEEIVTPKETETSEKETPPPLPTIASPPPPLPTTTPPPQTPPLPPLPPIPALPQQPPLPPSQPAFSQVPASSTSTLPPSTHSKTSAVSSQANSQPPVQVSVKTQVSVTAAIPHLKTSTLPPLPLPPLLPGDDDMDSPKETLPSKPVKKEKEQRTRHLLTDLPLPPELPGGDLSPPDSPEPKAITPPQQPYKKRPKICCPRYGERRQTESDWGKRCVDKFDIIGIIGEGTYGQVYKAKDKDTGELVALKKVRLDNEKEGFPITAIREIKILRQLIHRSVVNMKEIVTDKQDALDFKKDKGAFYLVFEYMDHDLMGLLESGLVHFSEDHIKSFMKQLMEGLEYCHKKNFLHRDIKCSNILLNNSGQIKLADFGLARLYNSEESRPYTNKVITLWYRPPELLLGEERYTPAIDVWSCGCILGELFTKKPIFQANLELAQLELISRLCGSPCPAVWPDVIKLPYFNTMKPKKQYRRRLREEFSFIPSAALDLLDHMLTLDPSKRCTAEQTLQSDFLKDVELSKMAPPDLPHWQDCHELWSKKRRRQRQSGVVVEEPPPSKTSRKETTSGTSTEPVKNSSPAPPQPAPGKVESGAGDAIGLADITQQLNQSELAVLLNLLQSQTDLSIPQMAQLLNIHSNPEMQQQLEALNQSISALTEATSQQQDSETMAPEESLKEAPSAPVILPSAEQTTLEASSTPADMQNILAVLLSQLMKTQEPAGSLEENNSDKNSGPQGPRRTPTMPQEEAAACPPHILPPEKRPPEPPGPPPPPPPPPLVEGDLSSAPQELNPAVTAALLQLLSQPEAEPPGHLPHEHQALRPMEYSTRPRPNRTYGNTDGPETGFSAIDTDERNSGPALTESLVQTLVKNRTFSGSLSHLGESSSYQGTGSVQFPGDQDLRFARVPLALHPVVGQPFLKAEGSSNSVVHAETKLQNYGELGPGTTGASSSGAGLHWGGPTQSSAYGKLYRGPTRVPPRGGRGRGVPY
Sequence of CDK12/CycK complex (O75909 whole entry partner, species assumed): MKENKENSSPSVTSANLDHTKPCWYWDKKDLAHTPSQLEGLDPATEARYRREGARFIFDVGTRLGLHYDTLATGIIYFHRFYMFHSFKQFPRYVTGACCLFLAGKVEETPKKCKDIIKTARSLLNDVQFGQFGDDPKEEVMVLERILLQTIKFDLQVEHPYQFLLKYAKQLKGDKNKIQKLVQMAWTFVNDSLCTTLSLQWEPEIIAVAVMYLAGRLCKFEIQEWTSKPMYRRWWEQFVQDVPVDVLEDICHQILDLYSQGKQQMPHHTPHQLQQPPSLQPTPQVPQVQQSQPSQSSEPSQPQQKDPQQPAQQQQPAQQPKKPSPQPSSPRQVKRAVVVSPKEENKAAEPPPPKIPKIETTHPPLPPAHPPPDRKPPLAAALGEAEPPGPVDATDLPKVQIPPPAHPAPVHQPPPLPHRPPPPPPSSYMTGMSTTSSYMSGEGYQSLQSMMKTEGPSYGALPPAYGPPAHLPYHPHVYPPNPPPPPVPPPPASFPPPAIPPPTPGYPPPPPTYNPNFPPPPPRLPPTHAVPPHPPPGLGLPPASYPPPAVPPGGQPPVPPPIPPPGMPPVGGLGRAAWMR

SMILES | inhibition at 1 µM (CDK12/CycK complex) | inhibition at 1 µM (A2780 cells)
COc1ncc(-c2ccc(N(C(=O)NCC(F)F)[C@H]3CC[C@H](Nc4ncc(C(F)(F)F)c(-c5n[nH]cc5Cl)n4)CC3)nc2)cn1 [Example 693, 1-(trans-4-((4-(4-chloro-1H-pyrazol-3-yl)-5-(trifluoromethyl)pyrimidin-2-yl)amino)cyclohexyl)-3-(2,2-difluoroethyl)-1-(5-(2-methoxypyrimidin-5-yl)pyridin-2-yl)urea] | 100% | 98%
COc1ncc(-c2ccc(N(C(=O)NCC(F)(F)F)[C@H]3CC[C@H](Nc4ncc(C(F)(F)F)c(-c5n[nH]cc5Cl)n4)CC3)nc2)cn1 [Example 729, 1-(trans-4-((4-(4-chloro-1H-pyrazol-3-yl)-5-(trifluoromethyl)pyrimidin-2-yl)amino)cyclohexyl)-1-(5-(2-methoxypyrimidin-5-yl)pyridin-2-yl)-3-(2,2,2-trifluoroethyl)urea] | 92% | 98%
COc1ncc(-c2cnc(N(C(=O)NCC(C)(F)F)[C@H]3CC[C@H](Nc4ncc(C(F)(F)F)c(-c5n[nH]cc5Cl)n4)CC3)cn2)cn1 [Example 740, 1-(trans-4-((4-(4-chloro-1H-pyrazol-3-yl)-5-(trifluoromethyl)pyrimidin-2-yl)amino)cyclohexyl)-3-(2,2-difluoropropyl)-1-(5-(2-methoxypyrimidin-5-yl)pyrazin-2-yl)urea] | 86% | 96%
COc1ncc(-c2cnc(N(C(=O)NCC3(F)CC3)[C@H]3CC[C@H](Nc4ncc(C(F)(F)F)c(-c5n[nH]cc5Cl)n4)CC3)cn2)cn1 [Example 742, 1-(trans-4-((4-(4-chloro-1H-pyrazol-3-yl)-5-(trifluoromethyl)pyrimidin-2-yl)amino)cyclohexyl)-3-((1-fluorocyclopropyl)methyl)-1-(5-(2-methoxypyrimidin-5-yl)pyrazin-2-yl)urea] | 87% | 96%
COc1ncc(-c2cnc(N(C(=O)NCC(F)(F)F)[C@H]3CC[C@H](Nc4ncc(C(F)(F)F)c(-c5n[nH]cc5Cl)n4)CC3)cn2)cn1 [Example 743, 1-(trans-4-((4-(4-chloro-1H-pyrazol-3-yl)-5-(trifluoromethyl)pyrimidin-2-yl)amino)cyclohexyl)-1-(5-(2-methoxypyrimidin-5-yl)pyrazin-2-yl)-3-(2,2,2-trifluoroethyl)urea] | 81% | 95%
COc1ncc(-c2cnc(N(C(=O)NCC(F)F)[C@H]3CC[C@H](Nc4ncc(C(F)(F)F)c(-c5n[nH]cc5Cl)n4)CC3)cn2)cn1 [Example 744, 1-(trans-4-((4-(4-chloro-1H-pyrazol-3-yl)-5-(trifluoromethyl)pyrimidin-2-yl)amino)cyclohexyl)-3-(2,2-difluoroethyl)-1-(5-(2-methoxypyrimidin-5-yl)pyrazin-2-yl)urea] | 92% | 97%
CCNC(=O)N(c1cnc(-c2cnn(C)c2)cn1)[C@H]1CC[C@H](Nc2ncc(C(F)(F)F)c(-c3ccn(C(F)F)n3)n2)CC1 [Example 764, 1-(trans-4-((4-(1-(difluoromethyl)-1H-pyrazol-3-yl)-5-(trifluoromethyl)pyrimidin-2-yl)amino)cyclohexyl)-3-ethyl-1-(5-(1-methyl-1H-pyrazol-4-yl)pyrazin-2-yl)urea] | 91% | 95%
COc1ncc(-c2cnc(N(C(=O)OCC(F)F)[C@H]3CC[C@H](Nc4ncc(C(F)(F)F)c(-c5cncc(S(C)(=O)=O)c5)n4)CC3)cn2)cn1 [Example 766, 2,2-difluoroethyl (trans-4-((4-(5-(methanesulfonyl)pyridin-3-yl)-5-(trifluoromethyl)pyrimidin-2-yl)amino)cyclohexyl) (5-(2-methoxypyrimidin-5-yl)pyrazin-2-yl)carbamate] | 96% | 99%
COc1ncc(-c2cnc(N(C(=O)OCCN(C)C)[C@H]3CC[C@H](Nc4ncc(C(F)(F)F)c(-c5cncc(S(C)(=O)=O)c5)n4)CC3)cn2)cn1 [Example 767, 2-(dimethylamino)ethyl (trans-4-((4-(5-(methanesulfonyl)pyridin-3-yl)-5-(trifluoromethyl)pyrimidin-2-yl)amino)cyclohexyl) (5-(2-methoxypyrimidin-5-yl)pyrazin-2-yl)carbamate] | 102% | 99%

Now from value to compound, other results behind:

inhibition at 1 µM (CDK12/CycK complex) | SMILES | inhibition at 1 µM (A2780 cells)
92% | CCCC(=O)N(c1cnc(-c2cnc(OC)nc2)cn1)[C@H]1CC[C@H](Nc2ncc(C(F)(F)F)c(-c3cncc(S(C)(=O)=O)c3)n2)CC1 [Example 798, N-(trans-4-((4-(5-(methanesulfonyl)pyridin-3-yl)-5-(trifluoromethyl)pyrimidin-2-yl)amino)cyclohexyl)-N-(5-(2-methoxypyrimidin-5-yl)pyrazin-2-yl)butanamide] | 99%
96% | CCNC(=O)N(c1cnc(-c2cnc(OC)nc2)cn1)[C@H]1CC[C@H](Nc2ncc(C(F)(F)F)c(-c3cncc(S(C)(=O)=O)c3)n2)CC1 [Example 799, 3-ethyl-1-(trans-4-((4-(5-(methanesulfonyl)pyridin-3-yl)-5-(trifluoromethyl)pyrimidin-2-yl)amino)cyclohexyl)-1-(5-(2-methoxypyrimidin-5-yl)pyrazin-2-yl)urea] | 99%
94% | COc1ncc(-c2cnc(N(C(=O)NCC(C)(C)O)[C@H]3CC[C@H](Nc4ncc(C(F)(F)F)c(-c5ccn(C(F)F)n5)n4)CC3)cn2)cn1 [Example 804, 1-(trans-4-((4-(1-(difluoromethyl)-1H-pyrazol-3-yl)-5-(trifluoromethyl)pyrimidin-2-yl)amino)cyclohexyl)-3-(2-hydroxy-2-methylpropyl)-1-(5-(2-methoxypyrimidin-5-yl)pyrazin-2-yl)urea] | 96%
99% | Cn1cc(-c2cnc(N(C(=O)OCC(F)F)[C@H]3CC[C@H](Nc4ncc(C(F)(F)F)c(-c5cncc(S(C)(=O)=O)c5)n4)CC3)cn2)cn1 [Example 820, 2,2-difluoroethyl (trans-4-((4-(5-(methanesulfonyl)pyridin-3-yl)-5-(trifluoromethyl)pyrimidin-2-yl)amino)cyclohexyl) (5-(1-methyl-1H-pyrazol-4-yl)pyrazin-2-yl)carbamate] | 99%
106% | COc1ncc(-c2cnc(N(C(=O)CCC(F)F)[C@H]3CC[C@H](Nc4ncc(C(F)(F)F)c(-c5cncc(S(C)(=O)=O)c5)n4)CC3)cn2)cn1 [Example 826, 4,4-difluoro-N-(trans-4-((4-(5-(methanesulfonyl)pyridin-3-yl)-5-(trifluoromethyl)pyrimidin-2-yl)amino)cyclohexyl)-N-(5-(2-methoxypyrimidin-5-yl)pyrazin-2-yl)butanamide] | 98%
109% | CCOCC(=O)N(c1cnc(-c2cnc(OC)nc2)cn1)[C@H]1CC[C@H](Nc2ncc(C(F)(F)F)c(-c3cncc(S(C)(=O)=O)c3)n2)CC1 [Example 827, 2-ethoxy-N-(trans-4-((4-(5-(methanesulfonyl)pyridin-3-yl)-5-(trifluoromethyl)pyrimidin-2-yl)amino)cyclohexyl)-N-(5-(2-methoxypyrimidin-5-yl)pyrazin-2-yl)acetamide] | 99%
107% | CCOCC(=O)N(c1cnc(-c2cnn(C)c2)cn1)[C@H]1CC[C@H](Nc2ncc(C(F)(F)F)c(-c3cncc(S(C)(=O)=O)c3)n2)CC1 [Example 831, 2-ethoxy-N-(trans-4-((4-(5-(methanesulfonyl)pyridin-3-yl)-5-(trifluoromethyl)pyrimidin-2-yl)amino)cyclohexyl)-N-(5-(1-methyl-1H-pyrazol-4-yl)pyrazin-2-yl)acetamide] | 99%
106% | COc1ncc(-c2cnc(N(C(=O)OCC(C)(C)O)[C@H]3CC[C@H](Nc4ncc(C(F)(F)F)c(-c5cncc(S(C)(=O)=O)c5)n4)CC3)cn2)cn1 [Example 836, 2-hydroxy-2-methylpropyl (trans-4-((4-(5-(methanesulfonyl)pyridin-3-yl)-5-(trifluoromethyl)pyrimidin-2-yl)amino)cyclohexyl) (5-(2-methoxypyrimidin-5-yl)pyrazin-2-yl)carbamate] | 99%

From US11584737B2, “Heterocyclic compound” (TAKEDA PHARMACEUTICAL COMPANY LIMITED, priority 2018, dated 2023)
